Tested on: patients with post-operative dental pain
Experiment: Single-center, randomized, two-stage, parallel-group double-blind clinical study of single-dose efficacy and safety in post-operative dental pain
Assay type: in vivo, human
Settings: ibuprofen 400 mg, caffeine 100 mg
Description: Clinical trials are performed in patients using the tablets produced according to example 1 and using the following study design:
Secondary goal: Evaluation of the efficacy and safety of multiple doses of the fixed combination compared with ibuprofen alone over a post-operative time period of 5 days (study stage 2).
Male and female patients between the ages of 18 and 55 years, scheduled for the extraction of 3 to 4 unsound wisdom teeth, with at least 2 extracted molars were recruited; the baseline of dental pain intensity must be at least moderate on a verbal evaluation scale and at least 5 on a numerical evaluation scale ranging from 0 to 10.
Following surgery, one tablet every 6-8 hours for 5 days has been administered.
The time-weighted sum of pain relief (PAR) and the difference in pain intensity (PID) from 0 to 8 hours (SPRID0-8H)
Secondary Endpoint • The time-weighted sum of PAR and PID from 0 to 2 hours (SPRID0-2H) • Duration of pain relief • Time to significant pain relief
The pain intensity (PI) was evaluated in a diary before administration and at 0.25, 0.5, 0.75, 1, 1.5, 2, 3, 4, 5, 6, 7 and 8 hours after the first dose of the study medication using an 11-point numerical rating scale (NPRS) from 0=“no pain” to 10=“worst possible pain”.
The pain relief (PAR) beginning from pain onset was evaluated in a patient diary using a 5-point rating scale (VRS) (0=no pain relief; 1=a little pain relief; 2=some pain relief; 3=much pain relief; 4=complete pain relief) at the same time points as for the PI evaluation.
As soon as a patient needed an emergency medication or a second dose of the medication within less than 8 hours, PI and PAR were evaluated before the emergency medication or second dose was administered.
The time-weighted sum of pain relief (PAR) and the pain intensity difference (PID) relative to baseline between 0 and 8 hours is determined as follows:
PID=PI at baseline−PI at the specific time point (here, higher PID values represent greater benefit for the patient).
Higher values of the SPRID0-8 h likewise indicate greater benefit for the patient.

[1] = Kaplan-Meyer analysis, single dose

CC(C)Cc1ccc(C(C)C(=O)O)cc1 (racemic) [Ibuprofen, (+/−) 2-(p-isobutylphenyl)-propionic acid]
Mean time to obtain relief (time to significant/meaningful pain relief) [1]: 2.5 h | Median duration of action [1]: 7.1 h | Adjusted Mean SPRID0-2h value (time-weighted sum of PAR and PID 0 to 2 hours after single dose): 6.990 | Adjusted Mean SPRID0-8h value (time-weighted sum of pain relief (PAR) and pain intensity difference (PID) 0 to 8 hours after single dose, study stage 1): 40.165
